Results: patent US20200377561A1, “ANTIMICROBIAL PEPTIDES AND METHODS OF TREATING GRAM-NEGATIVE PATHOGEN INFECTIONS: POLAR AND NON-POLAR FACE ANALOGS” (THE REGENTS OF THE UNIVERSITY OF COLORADO, a body corporate, priority 2017, published 2020)
Peptide text beside a SMILES is read from it.

Assays:
[1] = system: Acinetobacter baumannii NCTC 13420; type: cell-based; conditions: NCTC 13420
Experimental: (§1) Bacterial strains were acquired from the American Type Culture Collection (ATCC, Virginia, USA) and the National Collection of Type Cultures (NCTC, Public Health England, Salisbury, UK). Minimum Inhibitory Concentration (MIC) of peptides versus gram-negative strains-Acinetobacter baumannii NCTC 13420, and Pseudomonas aeruginosa ATCC 27853 and gram-positive strain Staphylococcus aureus ATCC 29213, were determined by broth microdilution as per the guidelines of the Clinical and Laboratory Standards Institute (“Methods for Dilution Antimicrobial Susceptibility Tests for Bacteria That Grow Aerobically”; Approved Standard-Ninth Edition. CLSI document M07-A9, 2012). Peptides were dissolved in sterile distilled water, which was also used as the drug-free vehicle control when determining peptide MICs. Prior to use in the MIC protocol, bacterial strains were grown on Mueller Hinton agar at 37° C. in an ambient atmosphere. […] A fixed inoculum of the test microorganism (5×10^5 cells/mL) is also added to the plate. The MIC is determined as the lowest concentration of compound that inhibits visible bacterial growth following incubation at 37° C. for 16-20 hours. A difference in MIC of two-fold between experimental replicates is considered to be within the normal variability of this protocol.

[2] = system: Pseudomonas aeruginosa ATCC 27853; type: cell-based; conditions: ATCC 27853
Experimental: as §1

Human erythrocytes = assay: Haemolysis assay using human blood; type: cell-based; conditions: red cells of human, 1 h
Experimental: To determine the extent of haemolytic activity (the ability to lyse red blood cells) in test peptides, a haemolysis assay was conducted using human blood (BioIVT, West Sussex, UK). Human erythrocytes were exposed to a single fixed concentration or a range of concentrations as to determine the % haemolysis (fixed concentration) or the concentration at which 50% haemolysis occurred (HC50), respectively. Prior to the assay, whole human blood was repeatedly washed in phosphate buffered saline (PBS) under cooled conditions to remove the buffy coat, plasma and cell debris. Washed erythrocytes were diluted as to achieve 1×10^8 cells/mL in PBS. Prepared human erythrocyte samples were combined with peptide at a single fixed concentration of 128 μg/mL, or a range of concentrations (two-fold dilution series) from 1000-31.25 μg/mL. Positive and negative controls containing 2% (v/v) Triton X-100 and PBS alone, respectively, were also prepared. Samples were incubated at 37° C. for 1 hour and then centrifuged to collect intact erythrocytes. Haemoglobin release was determined by recording the optical density of the supernatant at 540 nm. Optical density values were transformed to a percentage of the positive control. Results were recorded as a percentage haemolysis at 128 μg/mL, or by plotting the percentage haemolysis versus concentration and extrapolating the HC50 using linear regression analysis (Table 2 above)
The therapeutic index is a widely-accepted parameter to represent the specificity of antimicrobial peptides for prokaryotic versus eukaryotic cells. It is calculated by the ratio of hemolytic activity and antimicrobial activity (MIC) (Table 2 above); thus, larger values of therapeutic index indicate greater specificity for prokaryotic cells. With the peptides used in this study the inventors used the HC50/MIC ratio value to calculate the therapeutic index.

[3] = Peptide hydrophobicity by RP-HPLC retention; type: physicochemical; conditions: for tR (relative hydrophobicity by RP-HPLC): Zorbax SB-300 C8, 0.25% B/min from 10% B, 0.3 ml/min, 30° C.
Text: Retention behavior in RP-HPLC is an excellent method to represent overall peptide hydrophobicity. Retention times of peptides are highly sensitive to the conformational status of the peptides upon interaction with the hydrophobic environment of the column matrix^17,26. The non-polar faces of amphipathic alpha-helical and amphipathic cyclic beta-sheet peptides represent a preferred binding domain for interaction with the hydrophobic matrix of the reversed-phase column^27. In this study, the observed peptide hydrophobicity was determined by RP-HPLC retention time as described below and are relative hydrophobicities because they are dependent on the TFA concentration and organic solvent in the mobile phase, gradient rate, temperature, flow rate and the column used. Analytical Purification by Reversed-phase Chromatography: Analytical RP-HPLC: Column: Zorbax SB-300 C8 (150×2.1 mm ID; 5-μm particle size; 300 Å pore size). Conditions: linear AB gradient (0.25% B/min from 10% B) at a flow-rate of 0.3 ml/min, where Eluent A is 0.2% aq. TFA and Eluent B is 0.18% TFA in acetonitrile; 30° C.

| SMILES | Antimicrobial Activity MIC A. baumannii NCTC13420 [1] [µg/mL] | P. aeruginosa ATCC27853 MIC [2] [µg/mL] | Haemolysis HC50 (Human erythrocytes) [µg/mL] | tR (relative hydrophobicity by RP-HPLC) [3] [min] | ΔtR (Lys) ([3]; retention time difference to the Lys13/Lys16 parent peptide) [min] |
| --- | --- | --- | --- | --- | --- |
| CC(=O)N[C@H](CCCCN)C(=O)N[C@H](CC(C)C)C(=O)N[C@H](CO)C(=O)N[C@H](CO)C(=O)N[C@H](CC(C)C)C(=O)N[C@H](CC(C)C)C(=O)N[C@H](CO)C(=O)N[C@H](CCCCN)C(=O)N[C@H](CC(C)C)C(=O)N[C@H](CCCCN)C(=O)N[C@H](CCCCN)C(=O)N[C@H](C)C(=O)N[C@H](CCCCN)C(=O)N[C@H](CCCCN)C(=O)N[C@H](CCCCN)C(=O)N[C@H](CCCCN)C(=O)N[C@H](CC(C)C)C(=O)N[C@H](CCCCN)C(=O)N[C@H](CCCCN)C(=O)N[C@H](CC(C)C)C(=O)N[C@H](CC(C)C)C(=O)N[C@H](CCCCN)C(=O)N[C@H](C)C(=O)N[C@H](CC(C)C)C(=O)N[C@H](CO)C(=O)N[C@H](CO)C(N)=O [compound 5] (HELM PEPTIDE1{[ac].[dK].[dL].[dS].[dS].[dL].[dL].[dS].[dK].[dL].[dK].[dK].[dA].[dK].[dK].[dK].[dK].[dL].[dK].[dK].[dL].[dL].[dK].[dA].[dL].[dS].[dS].[am]}$$$$V2.0) | 1 | 2 | 669 |  |  |
| CC(=O)N[C@H](C)C(=O)N[C@H](CC(C)C)C(=O)N[C@H](CCCCN)C(=O)N[C@H](CCCCN)C(=O)N[C@H](CC(C)C)C(=O)N[C@H](CC(C)C)C(=O)N[C@H](CCCCN)C(=O)N[C@H](CCCCN)C(=O)N[C@H](CC(C)C)C(=O)N[C@H](CO)C(=O)N[C@H](CO)C(=O)N[C@H](C)C(=O)N[C@H](CCCCN)C(=O)N[C@H](CO)C(=O)N[C@H](CO)C(=O)N[C@H](CCCCN)C(=O)N[C@H](CC(C)C)C(=O)N[C@H](CO)C(=O)N[C@@H](C(=O)N[C@H](CC(C)C)C(=O)N[C@H](CC(C)C)C(=O)N[C@H](CCCCN)C(=O)N[C@H](CCCCN)C(=O)N[C@H](CC(C)C)C(=O)N[C@H](CCCCN)C(=O)N[C@H](CCCCN)C(N)=O)[C@H](C)O [compound 8] (HELM PEPTIDE1{[ac].[dA].[dL].[dK].[dK].[dL].[dL].[dK].[dK].[dL].[dS].[dS].[dA].[dK].[dS].[dS].[dK].[dL].[dS].[dT].[dL].[dL].[dK].[dK].[dL].[dK].[dK].[am]}$$$$V2.0) | 2 | 4 | >1000 | 94.51 |  |
| CC(=O)N[C@H](C)C(=O)N[C@H](CC(C)C)C(=O)N[C@H](CO)C(=O)N[C@H](CO)C(=O)N[C@H](CC(C)C)C(=O)N[C@H](CC(C)C)C(=O)N[C@H](CO)C(=O)N[C@H](CCCCN)C(=O)N[C@H](CC(C)C)C(=O)N[C@H](CCCCN)C(=O)N[C@H](CCCCN)C(=O)N[C@H](C)C(=O)N[C@H](CCCCN)C(=O)N[C@H](CCCCN)C(=O)N[C@H](CCCCN)C(=O)N[C@H](CCCCN)C(=O)N[C@H](CC(C)C)C(=O)N[C@H](CCCCN)C(=O)N[C@H](CCCCN)C(=O)N[C@H](CC(C)C)C(=O)N[C@H](CC(C)C)C(=O)N[C@H](CCCCN)C(=O)N[C@H](C)C(=O)N[C@H](CC(C)C)C(=O)N[C@H](CO)C(=O)N[C@H](CO)C(N)=O [compound 10] (HELM PEPTIDE1{[ac].[dA].[dL].[dS].[dS].[dL].[dL].[dS].[dK].[dL].[dK].[dK].[dA].[dK].[dK].[dK].[dK].[dL].[dK].[dK].[dL].[dL].[dK].[dA].[dL].[dS].[dS].[am]}$$$$V2.0) | 2 | 2 | >1000 |  |  |
| CC(=O)N[C@H](CCCCN)C(=O)N[C@H](CC(C)C)C(=O)N[C@H](CCCCN)C(=O)N[C@H](CCCCN)C(=O)N[C@H](CC(C)C)C(=O)N[C@H](CC(C)C)C(=O)N[C@H](CCCCN)C(=O)N[C@H](CCCCN)C(=O)N[C@H](CC(C)C)C(=O)N[C@H](CO)C(=O)N[C@H](CO)C(=O)N[C@H](C)C(=O)N[C@H](CCCN)C(=O)N[C@H](CO)C(=O)N[C@H](CO)C(=O)N[C@H](CCCN)C(=O)N[C@H](CC(C)C)C(=O)N[C@H](CO)C(=O)N[C@@H](C(=O)N[C@H](CC(C)C)C(=O)N[C@H](CC(C)C)C(=O)N[C@H](CCCCN)C(=O)N[C@H](CCCCN)C(=O)N[C@H](CC(C)C)C(=O)N[C@H](CCCCN)C(=O)N[C@H](CCCCN)C(N)=O)[C@H](C)O [compound 14] (HELM PEPTIDE1{[ac].[dK].[dL].[dK].[dK].[dL].[dL].[dK].[dK].[dL].[dS].[dS].[dA].[NCCC[C@@H](N[*:1])C(=O)[*:2]].[dS].[dS].[NCCC[C@@H](N[*:1])C(=O)[*:2]].[dL].[dS].[dT].[dL].[dL].[dK].[dK].[dL].[dK].[dK].[am]}$$$$V2.0) | 2 | 4 | >1000 | 83.40 | 3.97 |
| CC(=O)N[C@H](C)C(=O)N[C@H](CC(C)C)C(=O)N[C@H](CCCCN)C(=O)N[C@H](CO)C(=O)N[C@H](CC(C)C)C(=O)N[C@H](CC(C)C)C(=O)N[C@H](CCCCN)C(=O)N[C@H](CCCCN)C(=O)N[C@H](CC(C)C)C(=O)N[C@H](CO)C(=O)N[C@H](CCCCN)C(=O)N[C@H](C)C(=O)N[C@H](CCCCN)C(=O)N[C@H](CCCCN)C(=O)N[C@H](CCCCN)C(=O)N[C@H](CCCCN)C(=O)N[C@H](CC(C)C)C(=O)N[C@H](CCCCN)C(=O)N[C@H](CCCCN)C(=O)N[C@H](CC(C)C)C(=O)N[C@H](CC(C)C)C(=O)N[C@H](CCCCN)C(=O)N[C@H](C)C(=O)N[C@H](CC(C)C)C(=O)N[C@H](CO)C(=O)N[C@H](CO)C(N)=O [compound 23] (HELM PEPTIDE1{[ac].[dA].[dL].[dK].[dS].[dL].[dL].[dK].[dK].[dL].[dS].[dK].[dA].[dK].[dK].[dK].[dK].[dL].[dK].[dK].[dL].[dL].[dK].[dA].[dL].[dS].[dS].[am]}$$$$V2.0) | 2 | 2 | 175 |  |  |
| CC(=O)N[C@H](CCCCN)C(=O)N[C@H](CC(C)C)C(=O)N[C@H](CCCCN)C(=O)N[C@H](CO)C(=O)N[C@H](CC(C)C)C(=O)N[C@H](CC(C)C)C(=O)N[C@H](CCCCN)C(=O)N[C@H](CO)C(=O)N[C@H](CC(C)C)C(=O)N[C@H](CO)C(=O)N[C@H](CCCCN)C(=O)N[C@H](C)C(=O)N[C@H](CCCCN)C(=O)N[C@H](CCCCN)C(=O)N[C@H](CCCCN)C(=O)N[C@H](CCCCN)C(=O)N[C@H](CC(C)C)C(=O)N[C@H](CCCCN)C(=O)N[C@H](CO)C(=O)N[C@H](CC(C)C)C(=O)N[C@H](CC(C)C)C(=O)N[C@H](CCCCN)C(=O)N[C@H](C)C(=O)N[C@H](CC(C)C)C(=O)N[C@H](CO)C(=O)N[C@H](CCCCN)C(N)=O [compound 26] (HELM PEPTIDE1{[ac].[dK].[dL].[dK].[dS].[dL].[dL].[dK].[dS].[dL].[dS].[dK].[dA].[dK].[dK].[dK].[dK].[dL].[dK].[dS].[dL].[dL].[dK].[dA].[dL].[dS].[dK].[am]}$$$$V2.0) | 1 | 2 | >1000 |  |  |
